Measured values as given in patent US9968620B2, “Methods of treating lymphoma using thienotriazolodiazepine compounds” (ONCOETHIX GmbH, priority 2014, dated 2018).
Structures can show the parent of a compound that is named as a salt.

Columns and labels:
[1] = target: SYK (Homo sapiens, UniProt P43405); conditions: cited from earlier work
[2] = target: JAK-1 (Homo sapiens, UniProt P23458); conditions: cited from earlier work
[3] = target: Hck (Homo sapiens, UniProt P08631); conditions: cited from earlier work
[4] = target: JAK-3 (Homo sapiens, UniProt P52333); conditions: cited from earlier work
[5] = target: JAK-2 (Homo sapiens, UniProt O60674); conditions: cited from earlier work
[6] = target: IR kinase (Homo sapiens, UniProt P06213); conditions: cited from earlier work
[7] = target: EGFR kinase (Homo sapiens, UniProt P00533); conditions: cited from earlier work
[8] = tested on: HDAC; conditions: cited from earlier work
[9] = tested on: lymphoma cell lines (2-5 cell lines); test: Synergy of compound (1-1) with other agents, MTT, Chou-Talalay combination index; format: cell-based; conditions: 72 h; for combination effect with compound (1-1): Chou-Talalay; for Chou-Talalay combination index (CI), median / Chou-Talalay combination index (CI), range: in combination with compound (1-1)
[10] = target: FKBP12 (Homo sapiens, UniProt P62942); conditions: cited from earlier work
[11] = tested on: PI3K/mTOR; conditions: cited from earlier work
[12] = tested on: Akt phosphorylation on T308; conditions: cited from earlier work
[13] = tested on: Akt phosphorylation on S473; conditions: cited from earlier work
[14] = tested on: PDGFR; conditions: cited from earlier work
[15] = tested on: pAktS473, pGSK3βS9, pS6, pMAPK, pAktT308; conditions: cited from earlier work
[16] = target: PI3Kγ (p110γ) (Homo sapiens, UniProt P48736); conditions: cited from earlier work
[17] = target: PI3Kβ (p110β) (Homo sapiens, UniProt P42338); conditions: cited from earlier work
Chain of PI3Kβ (p110β) (P42338 whole entry, species assumed): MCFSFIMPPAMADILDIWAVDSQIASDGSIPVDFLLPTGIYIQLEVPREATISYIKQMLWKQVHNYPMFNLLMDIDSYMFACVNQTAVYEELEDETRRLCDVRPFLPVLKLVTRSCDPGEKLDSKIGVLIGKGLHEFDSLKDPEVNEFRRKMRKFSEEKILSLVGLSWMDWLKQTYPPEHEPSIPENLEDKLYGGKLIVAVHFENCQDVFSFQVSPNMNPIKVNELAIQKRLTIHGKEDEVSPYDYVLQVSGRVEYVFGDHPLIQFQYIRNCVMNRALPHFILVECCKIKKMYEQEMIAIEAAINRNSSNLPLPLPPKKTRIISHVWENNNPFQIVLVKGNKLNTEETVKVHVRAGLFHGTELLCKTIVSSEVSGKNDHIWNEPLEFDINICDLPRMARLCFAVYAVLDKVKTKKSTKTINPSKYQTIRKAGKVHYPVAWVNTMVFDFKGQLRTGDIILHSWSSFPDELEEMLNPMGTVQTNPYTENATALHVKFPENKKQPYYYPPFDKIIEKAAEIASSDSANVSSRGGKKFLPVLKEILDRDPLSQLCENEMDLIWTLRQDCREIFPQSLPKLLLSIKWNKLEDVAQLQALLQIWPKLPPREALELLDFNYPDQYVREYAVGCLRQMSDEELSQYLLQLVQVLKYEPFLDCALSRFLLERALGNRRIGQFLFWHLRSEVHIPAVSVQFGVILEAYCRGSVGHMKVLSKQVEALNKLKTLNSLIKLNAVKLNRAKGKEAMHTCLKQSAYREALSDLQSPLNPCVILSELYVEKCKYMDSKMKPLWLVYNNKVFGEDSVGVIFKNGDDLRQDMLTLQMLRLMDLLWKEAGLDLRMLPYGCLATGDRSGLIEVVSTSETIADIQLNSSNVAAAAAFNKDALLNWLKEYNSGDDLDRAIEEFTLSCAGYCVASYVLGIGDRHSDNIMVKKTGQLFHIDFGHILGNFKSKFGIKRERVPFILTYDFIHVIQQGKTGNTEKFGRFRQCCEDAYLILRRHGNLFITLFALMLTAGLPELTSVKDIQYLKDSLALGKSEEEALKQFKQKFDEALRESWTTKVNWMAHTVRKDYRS
Chain of PI3Kβ (p110β) (P27986 whole entry partner, species assumed): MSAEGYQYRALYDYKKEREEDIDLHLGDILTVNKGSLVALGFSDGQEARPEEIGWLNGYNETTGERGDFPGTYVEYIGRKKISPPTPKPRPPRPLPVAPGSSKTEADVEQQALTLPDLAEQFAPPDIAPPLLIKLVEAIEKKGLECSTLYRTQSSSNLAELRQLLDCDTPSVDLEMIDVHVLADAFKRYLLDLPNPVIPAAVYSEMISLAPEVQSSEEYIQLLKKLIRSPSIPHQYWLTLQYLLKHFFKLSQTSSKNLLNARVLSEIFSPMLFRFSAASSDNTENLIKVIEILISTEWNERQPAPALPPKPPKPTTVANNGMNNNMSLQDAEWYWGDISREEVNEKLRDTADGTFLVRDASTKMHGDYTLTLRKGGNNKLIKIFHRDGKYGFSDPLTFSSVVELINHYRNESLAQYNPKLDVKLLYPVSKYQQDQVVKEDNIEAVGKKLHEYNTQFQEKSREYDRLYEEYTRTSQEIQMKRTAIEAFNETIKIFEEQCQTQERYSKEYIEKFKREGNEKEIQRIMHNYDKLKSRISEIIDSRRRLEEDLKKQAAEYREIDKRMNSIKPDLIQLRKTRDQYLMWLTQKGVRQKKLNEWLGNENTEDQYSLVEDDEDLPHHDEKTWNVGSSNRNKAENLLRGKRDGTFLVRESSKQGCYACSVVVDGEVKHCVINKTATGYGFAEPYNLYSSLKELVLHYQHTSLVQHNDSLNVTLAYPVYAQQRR

Chain of IR kinase (P06213 28-1382): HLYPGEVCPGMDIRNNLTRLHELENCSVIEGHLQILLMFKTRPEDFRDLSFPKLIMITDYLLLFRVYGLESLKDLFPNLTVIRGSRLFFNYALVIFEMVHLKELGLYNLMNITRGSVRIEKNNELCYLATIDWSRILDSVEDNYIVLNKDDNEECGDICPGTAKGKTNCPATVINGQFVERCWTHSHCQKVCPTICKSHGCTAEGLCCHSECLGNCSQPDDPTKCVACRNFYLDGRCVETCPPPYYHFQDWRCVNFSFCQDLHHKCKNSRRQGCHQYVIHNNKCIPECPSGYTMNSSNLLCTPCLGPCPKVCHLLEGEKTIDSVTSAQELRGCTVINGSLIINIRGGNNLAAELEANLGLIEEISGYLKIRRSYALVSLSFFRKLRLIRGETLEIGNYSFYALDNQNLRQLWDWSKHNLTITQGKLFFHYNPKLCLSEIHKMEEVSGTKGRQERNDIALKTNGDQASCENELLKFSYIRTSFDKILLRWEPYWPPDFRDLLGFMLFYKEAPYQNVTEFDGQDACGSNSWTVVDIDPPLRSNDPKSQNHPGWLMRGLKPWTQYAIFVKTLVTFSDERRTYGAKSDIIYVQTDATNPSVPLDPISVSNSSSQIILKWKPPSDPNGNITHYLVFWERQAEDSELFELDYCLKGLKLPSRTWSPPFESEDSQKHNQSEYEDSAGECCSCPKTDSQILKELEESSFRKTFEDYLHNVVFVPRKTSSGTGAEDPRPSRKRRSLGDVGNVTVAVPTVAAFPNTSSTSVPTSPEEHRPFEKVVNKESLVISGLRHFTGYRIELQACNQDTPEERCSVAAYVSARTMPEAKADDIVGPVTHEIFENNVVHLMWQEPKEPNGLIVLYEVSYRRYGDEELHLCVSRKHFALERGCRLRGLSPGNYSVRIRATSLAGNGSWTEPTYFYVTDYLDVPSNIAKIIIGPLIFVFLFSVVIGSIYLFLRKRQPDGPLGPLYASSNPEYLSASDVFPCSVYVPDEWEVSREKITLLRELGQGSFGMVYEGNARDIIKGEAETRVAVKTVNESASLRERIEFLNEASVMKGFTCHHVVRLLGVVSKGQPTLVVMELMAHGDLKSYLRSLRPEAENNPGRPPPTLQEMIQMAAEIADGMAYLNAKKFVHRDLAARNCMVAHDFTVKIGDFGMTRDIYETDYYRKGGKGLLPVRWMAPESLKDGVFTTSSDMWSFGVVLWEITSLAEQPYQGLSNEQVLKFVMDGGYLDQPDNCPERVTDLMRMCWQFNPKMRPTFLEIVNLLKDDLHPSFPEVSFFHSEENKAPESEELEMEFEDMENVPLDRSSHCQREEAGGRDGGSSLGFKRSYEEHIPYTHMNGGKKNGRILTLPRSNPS
Chain of FKBP12 (P62942 whole entry, species assumed): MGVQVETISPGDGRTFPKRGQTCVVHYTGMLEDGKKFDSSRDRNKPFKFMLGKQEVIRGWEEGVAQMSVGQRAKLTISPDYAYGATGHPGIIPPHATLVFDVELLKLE
Chain of Hck (P08631 whole entry, species assumed): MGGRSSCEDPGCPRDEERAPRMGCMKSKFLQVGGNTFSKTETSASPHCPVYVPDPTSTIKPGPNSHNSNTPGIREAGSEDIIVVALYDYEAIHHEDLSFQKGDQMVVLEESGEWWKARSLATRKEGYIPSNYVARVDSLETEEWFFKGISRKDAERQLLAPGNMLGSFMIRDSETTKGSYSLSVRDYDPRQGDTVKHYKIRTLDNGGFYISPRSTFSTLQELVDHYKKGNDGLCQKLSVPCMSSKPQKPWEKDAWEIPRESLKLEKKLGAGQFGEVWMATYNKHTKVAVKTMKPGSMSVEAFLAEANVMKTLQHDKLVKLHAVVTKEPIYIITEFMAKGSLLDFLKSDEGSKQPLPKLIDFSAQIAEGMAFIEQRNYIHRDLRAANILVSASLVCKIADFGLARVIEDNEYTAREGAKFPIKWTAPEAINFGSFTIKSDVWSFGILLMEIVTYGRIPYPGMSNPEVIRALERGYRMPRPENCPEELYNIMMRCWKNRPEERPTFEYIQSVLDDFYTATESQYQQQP
Chain of PI3Kγ (p110γ) (P48736 whole entry, species assumed): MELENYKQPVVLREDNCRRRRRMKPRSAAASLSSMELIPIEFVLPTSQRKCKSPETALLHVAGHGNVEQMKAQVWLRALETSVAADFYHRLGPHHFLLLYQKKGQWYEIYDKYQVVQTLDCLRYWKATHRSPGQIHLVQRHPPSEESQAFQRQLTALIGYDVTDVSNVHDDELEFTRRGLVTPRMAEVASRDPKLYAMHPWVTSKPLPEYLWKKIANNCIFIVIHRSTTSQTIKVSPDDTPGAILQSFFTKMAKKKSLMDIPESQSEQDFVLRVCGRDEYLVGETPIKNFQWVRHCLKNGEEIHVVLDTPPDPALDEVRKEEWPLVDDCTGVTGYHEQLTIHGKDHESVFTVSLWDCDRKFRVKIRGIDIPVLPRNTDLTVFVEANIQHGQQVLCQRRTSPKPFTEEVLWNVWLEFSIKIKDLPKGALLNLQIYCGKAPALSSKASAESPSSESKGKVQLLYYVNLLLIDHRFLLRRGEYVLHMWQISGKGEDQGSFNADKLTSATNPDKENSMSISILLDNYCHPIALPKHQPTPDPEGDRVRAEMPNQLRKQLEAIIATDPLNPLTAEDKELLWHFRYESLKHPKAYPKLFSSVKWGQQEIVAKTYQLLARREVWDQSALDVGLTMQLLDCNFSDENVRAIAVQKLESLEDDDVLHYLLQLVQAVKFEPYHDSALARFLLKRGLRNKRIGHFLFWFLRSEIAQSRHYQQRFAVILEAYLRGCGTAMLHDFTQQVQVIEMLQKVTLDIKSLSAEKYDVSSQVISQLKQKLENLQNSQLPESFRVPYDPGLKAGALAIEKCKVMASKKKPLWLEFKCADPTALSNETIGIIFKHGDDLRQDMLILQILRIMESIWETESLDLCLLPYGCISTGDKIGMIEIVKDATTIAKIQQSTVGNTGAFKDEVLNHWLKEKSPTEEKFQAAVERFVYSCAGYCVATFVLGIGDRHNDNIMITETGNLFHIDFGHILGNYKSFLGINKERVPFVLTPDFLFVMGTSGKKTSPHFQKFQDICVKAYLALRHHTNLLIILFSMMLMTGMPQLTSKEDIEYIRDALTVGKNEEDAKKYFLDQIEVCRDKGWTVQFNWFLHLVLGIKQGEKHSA

In the case of `C/C(O)=C(\C#N)C(=O)Nc1cc(Br)ccc1Br`, the IC50 [1] is given as over 300 µM, the IC50 [2] is given as over 300 µM and the IC50 [3] is given as over 300 µM. For the same compound, the IC50 [4] was over 300 µM, the IC50 [5] was over 300 µM and the IC50 [6] was over 300 µM. For the same compound, the IC50 [7] was over 300 µM.

For `CC(C)[C@H](C(=O)Nc1ccc(C(=O)NO)cc1)c1ccccc1` [AR-42], the IC50 [8] is listed as 30 nM.

For `CN(C)c1ccc(C(=O)NCCCCCCC(=O)NO)cc1` [Compound M344], the IC50 [8] is given as 100 nM.

With `CO[C@H]1C[C@@H]2CC[C@@H](C)[C@@](O)(O2)C(=O)C(=O)N2CCCC[C@H]2C(=O)O[C@H]([C@H](C)C[C@@H]2CC[C@@H](OCCO)[C@H](OC)C2)CC(=O)[C@H](C)/C=C(\C)[C@@H](O)[C@@H](OC)C(=O)[C@H](C)C[C@H](C)/C=C/C=C/C=C/1C` [Everolimus] the “combination effect with compound (1-1)” value [9] was “Synergy”, the “Chou-Talalay combination index (CI), median” value [9] was 0.1 and the “Chou-Talalay combination index (CI), range” value [9] was 0.1-0.2. The IC50 [10] was 1.6 to 2.4 nM.

For `CCN(CC)Cc1ccc2cc(COC(=O)Nc3ccc(C(=O)NO)cc3)ccc2c1` [ITF2357], the IC50 [8] is given as 7.5 to 16 nM.

For `O=C(/C=C/c1ccc(CN(CCO)CCc2c[nH]c3ccccc23)cc1)NO` [LAQ824], the IC50 [8] is given as 32 nM.

In the case of `Cn1c(/C=C/C(=O)NO)ccc1/C=C/C(=O)c1cccc(F)c1` [MC1568], the IC50 [8] is given as 200 nM.

In the case of `COc1ccc(-c2ccc3ncc4c(c3c2)n(-c2ccc(N3CCNCC3)c(C(F)(F)F)c2)c(=O)n4C)cn1` [NVP-BGT226], the IC50 [11] is listed as 1 nM.

For `COc1ccc(-c2cc3c(C)nc(N)nc3n([C@H]3CC[C@H](OCCO)CC3)c2=O)cn1` [PF-04691502], the IC50 [12] is listed as 7.5 nM and the IC50 [13] is listed as 3.8 nM.

In the case of `Nc1ncnc2c1c(-c1cnc3[nH]ccc3c1)nn2C1CCCC1` [PP-121, 1-Cyclopentyl-3-(1H-pyrrolo[2,3-b]p-yridin-5-yl)-1H-pyrazolo[3,4-d]pyrimidin-4-amine], the IC50 [14] is given as 2 nM.

For `COc1ccc(COc2cc3oc(=O)c4cc(C(C)O)ccc4c3cc2OC)cc1` (centres unmarked) [Palomid 529], the “effect on phosphorylation of pAktS473, pGSK3βS9, pS6, pMAPK, pAktT308” value [15] is given as “both the mTORCl and mTORC2 complexes, reduces phosphorylation of pAktS473, pGSK3βS9, and pS6 but neither pMAPK nor pAktT308. Phase 1”.

For `CCCCc1nc2cc(/C=C/C(=O)NO)ccc2n1CCN(CC)CC` [SB939], the IC50 [8] is given as 40 to 140 nM.

In the case of `CCCC(CCC)C(=O)O` [Valproic acid sodium salt], the IC50 [8] is given as 400000 nM.

For `O=C(CCCCCCC(=O)Nc1ccccc1)NO` [Vorinostat, suberoylanilide hydroxamic acid], the “combination effect with compound (1-1)” value [9] was “Synergy”, the “Chou-Talalay combination index (CI), median” value [9] was 0.5 and the “Chou-Talalay combination index (CI), range” value [9] was 0.3-0.6.

In the case of `CC1=C(/C=C/C(C)=C/C=C/C(C)=C/C(=O)O)C(C)(C)CCC1` [all-trans retinoic acid], the “combination effect with compound (1-1)” value [9] is reported as “Synergy”.

With `Cn1c(CCCC(=O)O)nc2cc(N(CCCl)CCCl)ccc21` [bendamustine, 4-[5-[Bis(2-chloroethyl)amino]-1-methylbenzimidazol-2-yl]butanoic acid] the “combination effect with compound (1-1)” value [9] was “Additive effects”.

In the case of `COc1cccc2c1C(=O)c1c(O)c3c(c(O)c1C2=O)C[C@@](O)(C(=O)CO)C[C@@H]3O[C@H]1C[C@H](N)[C@H](O)[C@H](C)O1` [doxorubicin, (7S,9S)-7-[(2R,4S,5S,6S)-4-amino-5-hydroxy-6-methyloxan-2-yl]oxy-6,9,11-trihydroxy-9-(2-hydroxyacetyl)-4-methoxy-8,10-dihydro-7H-tetracene-5,12-dione], the “combination effect with compound (1-1)” value [9] is reported as “Additive effects”, the “Chou-Talalay combination index (CI), median” value [9] is reported as 0.83 and the “Chou-Talalay combination index (CI), range” value [9] is reported as 0.7-0.96.

With `C=CC(=O)N1CCC[C@@H](n2nc(-c3ccc(Oc4ccccc4)cc3)c3c(N)ncnc32)C1` [ibrutinib] the “combination effect with compound (1-1)” value [9] was “Synergy”, the “Chou-Talalay combination index (CI), median” value ([9]; in ABC-DLBCL) was 0.04 and the “Chou-Talalay combination index (CI), range” value ([9]; in ABC-DLBCL) was 0.02-0.1.

With `CC[C@H](Nc1ncnc2[nH]cnc12)c1nc2cccc(F)c2c(=O)n1-c1ccccc1` [idelalisib] the “combination effect with compound (1-1)” value [9] was “Synergy”, the “Chou-Talalay combination index (CI), median” value [9] was 0.5 and the “Chou-Talalay combination index (CI), range” value [9] was 0.04-2.4.

In the case of `Nc1cccc2c1CN(C1CCC(=O)NC1=O)C2=O` (centres unmarked) [lenalidomide], the “combination effect with compound (1-1)” value [9] is reported as “Synergy” and the “Chou-Talalay combination index (CI), median” value [9] is reported as 0.7.

For GSK2126458, the Ki [16] is given as 0.024 nM and the Ki [17] is given as 0.13 nM.

In the case of “rituximab: agent combined with compound (1-1) in the synergy test”, the “combination effect with compound (1-1)” value [9] is reported as “Synergy”, the “Chou-Talalay combination index (CI), median” value [9] is reported as 0.5 and the “Chou-Talalay combination index (CI), range” value [9] is reported as 0.4-0.5.
